In brackets after ≈: the same amount, converted by molar mass. Activity calls are given as the source filed them. The calls are words filed in the database; no cut-off is given here.
Legend:
Bacillus cereus [1] = experiment: Antibacterial activity against Bacillus cereus ATCC14579 assessed as inhibition of bacterial growth at 1 mg/ml incubated for 16 hrs by agar well diffusion assay relative to control; type: functional
Staphylococcus aureus [2] = experiment: Antibacterial activity against Staphylococcus aureus LMG15975 assessed as inhibition of bacterial growth at 1 mg/ml incubated for 16 hrs by agar well diffusion assay relative to control; type: functional
Lactococcus lactis [3] = experiment: Antibacterial activity against Lactococcus lactis MG1363 assessed as inhibition of bacterial growth at 1 mg/ml incubated for 16 hrs by agar well diffusion assay relative to control; type: functional
Lactococcus lactis [4] = experiment: Antibacterial activity against Lactococcus lactis MG1363 assessed as bacterial growth inhibition incubated for 18 hrs by Mueller-Hinton broth based doubling dilution method; type: functional
Listeria monocytogenes = experiment: Antibacterial activity against Listeria monocytogenes LMG10470 assessed as bacterial growth inhibition incubated for 18 hrs by Mueller-Hinton broth based doubling dilution method; type: functional
Staphylococcus aureus [5] = experiment: Antibacterial activity against Staphylococcus aureus LMG10147 assessed as bacterial growth inhibition incubated for 18 hrs by Mueller-Hinton broth based doubling dilution method; type: functional
Staphylococcus aureus [6] = experiment: Antibacterial activity against methicillin-resistant Staphylococcus aureus LMG15975 assessed as bacterial growth inhibition incubated for 18 hrs by Mueller-Hinton broth based doubling dilution method; type: functional
Enterococcus faecalis = experiment: Antibacterial activity against vancomycin-resistant Enterococcus faecalis LMG16216 assessed as bacterial growth inhibition incubated for 18 hrs by Mueller-Hinton broth based doubling dilution method; type: functional
Enterococcus faecium = experiment: Antibacterial activity against vancomycin-resistant Enterococcus faecium LMG16003 assessed as bacterial growth inhibition incubated for 18 hrs by Mueller-Hinton broth based doubling dilution method; type: functional
Bacillus cereus [7] = experiment: Antibacterial activity against Bacillus cereus ATCC14579 assessed as bacterial growth inhibition incubated for 18 hrs by Mueller-Hinton broth based doubling dilution method; type: functional
Clostridium botulinum = experiment: Antibacterial activity against Clostridium botulinum CECT551 assessed as bacterial growth inhibition incubated for 18 hrs by Mueller-Hinton broth based doubling dilution method; type: functional
Clostridium perfringens = experiment: Antibacterial activity against Clostridium perfringens CECT376 assessed as bacterial growth inhibition incubated for 18 hrs by Mueller-Hinton broth based doubling dilution method; type: functional
Clostridium tetani = experiment: Antibacterial activity against Clostridium tetani CECT4629 assessed as bacterial growth inhibition incubated for 18 hrs by Mueller-Hinton broth based doubling dilution method; type: functional
Lactococcus lactis [8] = experiment: Antibacterial activity against Lactococcus lactis MG1363 assessed as bacterial death at 10 times of MIC by time killing assay; type: functional, organism-based
Cell membrane = experiment: Induction of membrane permeabilization in Lactococcus lactis MG1363 assessed as pore forming ability by measuring increase in red fluorescence at 2 times MIC measured after 15 mins by SYTO-9 Green dye/red PI staining based fluorescence microscopy; type: subcellular
Lactococcus lactis [9] = experiment: Antibacterial activity against Lactococcus lactis MG1363 at 1 mg/ml incubated at pH 2 for 4 hrs; type: functional, organism-based
Lactococcus lactis [10] = experiment: Antibacterial activity against Lactococcus lactis MG1363 at 1 mg/ml incubated at pH 4 for 4 hrs; type: functional, organism-based
Lactococcus lactis [11] = experiment: Antibacterial activity against Lactococcus lactis MG1363 at 1 mg/ml incubated at pH 7 for 4 hrs; type: functional, organism-based
Lactococcus lactis [12] = experiment: Antibacterial activity against Lactococcus lactis MG1363 at 1 mg/ml incubated at pH 10 for 4 hrs; type: functional, organism-based
Bacillus cereus [13] = experiment: Antibacterial activity against Bacillus cereus ATCC14579 assessed as inhibition of bacterial growth by measuring increased activity more than estercin A (100%) at 1 mg/ml incubated for 16 hrs by agar well diffusion assay; type: functional; design: scale not given: the % may be the effect or the level left
Lactococcus lactis [14] = experiment: Antibacterial activity against Lactococcus lactis MG1363 assessed as inhibition of bacterial growth by measuring increased activity more than estercin A (100%) at 1 mg/ml incubated for 16 hrs by agar well diffusion assay; type: functional; design: scale not given: the % may be the effect or the level left

**Q.** `C=C1NC(=O)[C@H](C(C)C)NC(=O)[C@@H]2CSC[C@@H](C(=O)N[C@@H](CCCCN)C(=O)O)NC(=O)[C@H](CSC[C@H]3NC(=O)[C@H](Cc4ccccc4)NC(=O)[C@@H](NC(=O)[C@@H](NC(=O)[C@@H](NC(=O)[C@@H](NC(=O)CNC(=O)CNC(=O)CN)C(C)C)[C@@H](C)CC)[C@@H](C)O)CSC[C@H](NC(=O)[C@H](CCC(=O)O)NC(=O)[C@H](Cc4c[nH]cn4)NC3=O)C(=O)N[C@@H](Cc3ccc(O)cc3)C(=O)N[C@@H](Cc3ccc(O)cc3)C(=O)N[C@@H](CC(N)=O)C(=O)N2)NC(=O)[C@H]([C@@H](C)O)NC(=O)CNC(=O)[C@H](Cc2c[nH]c3ccccc23)NC(=O)[C@H](CO)NC(=O)[C@H](C)NC(=O)[C@@H]2CCCN2C1=O` was tested. Which Activity (Bacillus cereus [1]) did it give?
**A.** Its Activity is “inactive”.

**Q.** What about the Activity (Staphylococcus aureus [2]) of the same compound?
**A.** Its Activity is “inactive”.

**Q.** And the Activity (Lactococcus lactis [3])?
**A.** The Activity was “inactive”.

**Q.** Which results are given for `C=C(NC(=O)[C@@H](NC(=O)[C@H](Cc1c[nH]cn1)NC(=O)[C@@H](NC(=O)[C@H](CO)NC(=O)[C@@H]1CS[C@@H](C)[C@H]2NC(=O)C(=C)NC(=O)[C@H](NC(=O)[C@H](CCCCN)NC(=O)[C@H](CCSC)NC(=O)[C@H](CC(N)=O)NC(=O)[C@@H]3CS[C@@H](C)[C@@H](NC(=O)[C@H](CCCNN)NC(=O)[C@@H]4CS[C@@H](C)[C@@H](NC(=O)[C@@H]5CSC[C@@H](NC(=O)/C(=C\C)NC(=O)[C@@H](N)[C@@H](C)CC)C(=O)N[C@@H]([C@@H](C)CC)C(=O)NC(=C)C(=O)N[C@@H]([C@@H](C)CC)C(=O)N5)C(=O)N5CCC[C@H]5C(=O)NCC(=O)N4)C(=O)NCC(=O)N[C@@H](C)C(=O)N[C@@H]([C@@H](C)CC)C(=O)N[C@@H](CCSC)C(=O)NCC(=O)N3)[C@H](C)SC[C@H](NC2=O)C(=O)N[C@@H](Cc2c[nH]cn2)C(=O)N1)[C@@H](C)CC)C(C)C)C(=O)N[C@@H](CCCCN)C(=O)O`?
**A.** MIC (Lactococcus lactis [4]): 0.016 µg/mL (≈ 0.00477 µM); MIC (Listeria monocytogenes): 8 µg/mL (≈ 2.39 µM); MIC (Staphylococcus aureus [5]): 16 µg/mL (≈ 4.77 µM); MIC (Staphylococcus aureus [6]): 4 µg/mL (≈ 1.19 µM); MIC (Enterococcus faecalis): 4 µg/mL (≈ 1.19 µM); MIC (Enterococcus faecium): 4 µg/mL (≈ 1.19 µM); MIC (Bacillus cereus [7]): 4 µg/mL (≈ 1.19 µM); MIC (Clostridium botulinum): 4 µg/mL (≈ 1.19 µM); MIC (Clostridium perfringens): 1 µg/mL (≈ 0.298 µM); MIC (Clostridium tetani): 4 µg/mL (≈ 1.19 µM); Activity (Lactococcus lactis [8]): Active; Rapid Cell Death Observed; Activity (Cell membrane): Active; Activity (Lactococcus lactis [9]): Active; Activity (Lactococcus lactis [10]): Active; Activity (Lactococcus lactis [11]): Active; Activity (Lactococcus lactis [12]): Active

**Q.** How did the Activity (Bacillus cereus [1]) turn out when `C=C1NC(=O)[C@H](C(C)C)NC(=O)[C@@H]2CSC[C@@H](C(=O)N[C@@H](CCCCN)C(=O)O)NC(=O)[C@H](CSC[C@@H]3NC(=O)[C@H](Cc4ccccc4)NC(=O)[C@@H](NC(=O)[C@H](CC(N)=O)NC(=O)[C@@H](NC(=O)[C@@H](NC(=O)CNC(=O)CNC(=O)CN)C(C)C)[C@@H](C)CC)CSC[C@H](NC(=O)[C@H](CCC(=O)O)NC(=O)[C@H](Cc4c[nH]cn4)NC3=O)C(=O)N[C@@H](Cc3ccc(O)cc3)C(=O)N[C@@H](Cc3ccc(O)cc3)C(=O)N[C@@H](CC(N)=O)C(=O)N2)NC(=O)CNC(=O)CNC(=O)[C@H](Cc2c[nH]c3ccccc23)NC(=O)[C@H](CO)NC(=O)[C@H](C)NC(=O)[C@@H]2CCCN2C1=O` was run?
**A.** The Activity was 100%.

**Q.** And the Activity (Staphylococcus aureus [2])?
**A.** Its Activity is 100%.

**Q.** And the Activity (Lactococcus lactis [3])?
**A.** The Activity was 100%.

**Q.** For `C=C1NC(=O)[C@H](C(C)C)NC(=O)[C@@H]2CSC[C@@H](C(=O)N[C@@H](CCCCN)C(=O)O)NC(=O)[C@H](CSC[C@@H]3NC(=O)[C@H](Cc4ccccc4)NC(=O)[C@@H](NC(=O)[C@@H](NC(=O)[C@@H](NC(=O)[C@@H](NC(=O)CNC(=O)[C@H](CC(N)=O)NC(=O)CN)C(C)C)[C@@H](C)CC)[C@@H](C)O)CSC[C@H](NC(=O)[C@H](CCC(=O)O)NC(=O)[C@H](Cc4c[nH]cn4)NC3=O)C(=O)N[C@@H](Cc3ccc(O)cc3)C(=O)N[C@@H](Cc3ccc(O)cc3)C(=O)N[C@@H](CC(N)=O)C(=O)N2)NC(=O)CNC(=O)CNC(=O)[C@H](Cc2c[nH]c3ccccc23)NC(=O)[C@H](CO)NC(=O)[C@H](C)NC(=O)[C@@H]2CCCN2C1=O`, which Activity (Staphylococcus aureus [2]) is on record?
**A.** Its Activity is 100%.

**Q.** What about the Activity (Bacillus cereus [13]) of the same compound?
**A.** Its Activity is 20%.

**Q.** What about the Activity (Lactococcus lactis [14]) of the same compound?
**A.** Its Activity is 20%.

— ChEMBL document CHEMBL6153065, “Heterologous Expression and Characterization of Estercin A, a Class II Lanthipeptide Derived from Clostridium estertheticum CF016, with Antimicrobial Activity against Clinically Relevant Pathogens” (2025)
